Experimental data from patent US20240034733A1, “KRAS G12D INHIBITORS” (Mirati Therapeutics, Inc., priority 2020, published 2024).

How the values were obtained:
[1] = target: T1, KRas G12D (Homo sapiens, UniProt P01116, G12D); test: KRas G12D Surface Plasmon Resonance (SPR) Binding Assay; conditions: Biacore T200, 20° C., 1:1 binding model, read-out: KD (nM), Determination of KRas G12D KD
T1 construct: Avidin-tag (so in the source)
Method: This Example illustrates that exemplary compounds of the present invention bind to KRas G12D as measured by surface plasmon resonance (SPR).
Briefly, 1 L of 1.05×HBS-Mg buffer (262.5 mM BioUltra Hepes, pH 7.5, 157.5 mM NaCl, 105 mM MgCl2, 0.525 mM TCEP, 0.0305% Brij-35) was prepared and filter sterilized using a 0.22 μm bottle top filter. Approximately 50 mL of 1.05×HBS-Mg buffer was removed and saved for future dilutions. A 50 mL aliquot of DMSO (Sigma Aldrich DMSO Lot. #SHBK2079) was added and continued to stir for 10 minutes, creating the final 1.0×HBS-Mg buffer (250 mM BioUltra Hepes pH 7.5, 150 mM NaCl, 100 mM MgCl2, 0.5 mM TCEP, 0.03% Brij-35).
Biacore T200 instrument was primed using 1.0×HBS-Mg buffer before docking a GE Streptavidin (SA) chip and then primed two additional times prior to beginning the immobilization step. All immobilized protein mixtures were created using 3-5 mg/mL Biotinylated Avidin-tagged KRAS protein using the following immobilization settings: SA chip type, 1 flow cells per cycle, 720 second contact time, and 5 μL/min flow rate. Normalization of the detector was also performed during the immobilization step using the GE BiaNormalize solution.
All compounds were diluted to 10 mM in 100% DMSO prior to being diluted 20× in 1.05× buffer. Another 10× dilution was created using 1.0× buffer prior to performing a series of 3×dilutions to create a compound concentration curve using the following assay settings: 20° C. analysis temperature, General Settings=10 Hz data collection rate and multi-detection; Assay Steps=all set to LMW kinetics; Cycle Types=LMW kinetics (60 s contact time, 120 s dissociation time, 100 μL/min flow rate, extra wash after injection with 50% DMSO, flow path 1, 2, 3, 4); Flow path detection=2−1, 4−3). Data evaluation was performed using the Biacore T200 Evaluation software and data fit to 1:1 binding model.

[2] = test system: KRas G12D-mediated phosphorylation of ERK; test: Inhibition of KRas G12D-mediated phosphorylation of ERK in AGS cells; assay type: cell-based; conditions: Homo sapiens; AGS cells expressing G12D, 3 hours, phospho-ERK normalized to GAPDH
Method: AGS cells (ATCC CRL-1739) expressing G12D were grown in DMEM medium supplemented with 10% fetal bovine serum, 10 mM HEPES, and Penicillin/Streptomycin. Cells were plated in tissue culture treated 96 well plates at a density of 40,000 cells/well and allowed to attach for 12-14 hours. Diluted compounds were then added in a final concentration of 0.5% DMSO. After 3 hours, the medium was removed, 150 μl of 4.0% formaldehyde was added and the plates incubated at room temperature for 20 minutes. The plates were washed with PBS, and permeabilized with 150p of ice cold 100% methanol for 10 minutes. Non-specific antibody binding to the plates was blocked using 100 μL Licor blocking buffer (Li-Cor Biotechnology, Lincoln NE) for 1 hour at room temperature.
The amount of phosho-ERK was determined using an antibody specific for the phosphorylated form of ERK and compared to the amount of GAPDH. Primary antibodies used for the detection were added as follows: Phospho-ERK (Cell Signaling cs-9101) diluted 1:500 and GAPDH (Millipore MAB374) diluted 1:5000 in Licor block+0.05% Tween 20. The plates were incubated for 2 hours at room temperature. The plates were washed with PBS+0.05% Tween 20.
Secondary antibodies used to visualize primary antibodies were added as follows: Anti-rabbit-680 diluted 1:1000 and Anti-mouse-800 diluted 1:1000 both in Licor block+0.05% Tween20, and were incubated for 1 hour at room temperature. The plates were washed with PBS +0.05% Tween 20. A 100 μl aliquot of PBS was added to each well and the plates were read on a Li-Cor Odyssey CLX plate reader phospho-ERK (Thr202/Tyr204) signal was normalized to the GAPDH signal for each well and percent of DMSO control values were calculated. IC50 values were generated using a 4-parameter fit of the dose response curve

[3] = target: T2, GDP-loaded recombinant human KRAS G12D (Homo sapiens, UniProt P01116, G12D); test: KRas G12D Binding Assay (TR-FRET displacement of Cy5 labelled tracer); conditions: 60 minute incubation at 22° C.
T2 construct: corresponding to amino acids 1:169, produced at Array BioPharma; biotin (biotinylated); made in house
T2 sequence (P01116 1-169 isoform P01116-2 G12D): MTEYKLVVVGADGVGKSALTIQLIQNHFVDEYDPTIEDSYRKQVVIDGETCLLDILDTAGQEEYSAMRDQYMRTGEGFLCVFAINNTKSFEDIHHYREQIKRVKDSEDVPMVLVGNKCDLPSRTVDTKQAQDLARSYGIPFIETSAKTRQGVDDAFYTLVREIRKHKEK
Method: This Example illustrates that exemplary compounds of the present invention bind to KRas G12D and are capable of displacing a labeled tracer ligand occupying the KRas G12D binding site.
The ability of a compound to bind to KRAS G12D was measured using a TR-FRET displacement assay. Biotinylated GDP-loaded recombinant human KRAS G12D (corresponding to amino acids 1:169, produced at Array BioPharma) was incubated with a custom-made Cy5 labelled tracer, europium labelled streptavidin and compound (2% DMSO final) in buffer (50 mM HEPES [pH 7.5], 5 mM MgCl2, 0.005% Tween-20 & 1 mM DTT). After a 60 minute incubation at 22° C., the reaction was measured using a PerkinElmer EnVision multimode plate reader via TR-FRET dual wavelength detection, and the percent of control (POC) calculated using a ratiometric emission factor. […] The POC values were fit to a 4-parameter logistic curve and the IC50 value was determined as the concentration where the curve crosses 50 POC.

T1 sequence (P01116 1-188 isoform P01116-2 G12D): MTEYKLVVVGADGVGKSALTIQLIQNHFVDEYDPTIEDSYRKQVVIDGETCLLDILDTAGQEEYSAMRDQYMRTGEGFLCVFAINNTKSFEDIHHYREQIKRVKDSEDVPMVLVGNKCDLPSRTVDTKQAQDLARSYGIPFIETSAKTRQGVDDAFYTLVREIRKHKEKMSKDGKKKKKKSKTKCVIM

| Compound | Kd [1] | IC50 [2] | IC50 [3] |
| --- | --- | --- | --- |
| CN1CCC[C@H]1COc1nc(N2C[C@H]3CC[C@@H]2CN3)c2cnc(-c3cc(O)cc4ccccc34)c(F)c2n1 [Example 15, 4-(4-((1R,4R)-2,5-diazabicyclo[2.2.2]octan-2-yl)-8-fluoro-2-(((S)-1-methylpyrrolidin-2-yl)methoxy)pyrido[4,3-d]pyrimidin-7-yl)naphthalen-2-ol] | 93 nM | 7120 nM | – |
| CN1CCC[C@H]1COc1nc(N2CC3CCC2CN3)c2cnc(-c3cc(O)cc4ccccc34)c(F)c2n1 (stereo partly drawn) [Example 14, 4-(4-(2,5-diazabicyclo[2.2.2]octan-2-yl)-8-fluoro-2-(((S)-1-methylpyrrolidin-2-yl)methoxy)pyrido[4,3-d]pyrimidin-7-yl)naphthalen-2-ol] | 36 nM | 8610 nM | 30.8 nM |
| Cc1cc2[nH]ncc2c(-c2ccc3c(N4C[C@H]5CC[C@@H](C4)N5)nc(OC[C@@H]4CCCN4C)nc3c2F)c1C [Example 30, 4-((1R,5S)-3,8-diazabicyclo[3.2.1]octan-3-yl)-7-(5,6-dimethyl-1H-indazol-4-yl)-8-fluoro-2-(((S)-1-methylpyrrolidin-2-yl)methoxy)quinazoline] | 152 nM | 5090 nM | 57 nM |
| CN1CCC[C@H]1COc1nc(N2CCNC3(CC3)C2)c2ccc(-c3cc(O)cc4ccccc34)c(F)c2n1 [Example 12, (S)-4-(8-fluoro-2-((1-methylpyrrolidin-2-yl)methoxy)-4-(4,7-diazaspiro[2.5]octan-7-yl)quinazolin-7-yl)naphthalen-2-ol] | 110 nM | 5560 nM | – |
| Fc1c(-c2cccc3cccc(Cl)c23)ccc2c(N3C[C@H]4CC[C@@H](C3)N4)nc(OCC34CCCN3CCC4)nc12 [Example 2, 4-((1R,5S)-3,8-diazabicyclo[3.2.1]octan-3-yl)-7-(8-chloronaphthalen-1-yl)-8-fluoro-2-((tetrahydro-1H-pyrrolizin-7a(5H)-yl)methoxy)quinazoline] | 8 nM | 4540 nM | 6.1 nM |
| N#Cc1ccccc1Oc1cc2c(N3C[C@H]4CC[C@@H](C3)N4)nc(OCC34CCCN3CCC4)nc2cc1-c1cc(O)cc2ccccc12 [Example 21, 2-((4-((1R,5S)-3,8-diazabicyclo[3.2.1]octan-3-yl)-7-(3-hydroxynaphthalen-1-yl)-2-((tetrahydro-1H-pyrrolizin-7a(5H)-yl)methoxy)quinazolin-6-yl)oxy)benzonitrile] | – | 1270 nM | 1 nM |
| Oc1cc(-c2ccc3c(N4C[C@H]5CC[C@@H](C4)N5)nc(OCC45CCCN4CCC5)nc3c2F)c2ccccc2c1 [Example 3, 4-(4-((1R,5S)-3,8-diazabicyclo[3.2.1]octan-3-yl)-8-fluoro-2-((tetrahydro-1H-pyrrolizin-7a(5H)-yl)methoxy)quinazolin-7-yl)naphthalen-2-ol] | – | 95 nM | 0.5 nM |
| CN1CCC[C@H]1COc1nc(N2CC3CCC2CN3)c2cc(Cl)c(-c3cc(O)cc4ccccc34)c(F)c2n1 (stereo partly drawn) [Example 11, 4-((7R)-4-(2,5-diazabicyclo[2.2.2]octan-2-yl)-6-chloro-8-fluoro-2-(((S)-1-methylpyrrolidin-2-yl)methoxy)quinazolin-7-yl)naphthalen-2-ol] | 16 nM | 2840 nM | 10.4 nM |
| CN1CCC[C@H]1COc1nc(N2C[C@H]3CC[C@@H](C2)N3)c2cc(Oc3ccccc3C#N)c(-c3cc(O)cc4ccccc34)cc2n1 [Example 20, 2-((4-((1R,5S)-3,8-diazabicyclo[3.2.1]octan-3-yl)-7-(3-hydroxynaphthalen-1-yl)-2-(((S)-1-methylpyrrolidin-2-yl)methoxy)quinazolin-6-yl)oxy)benzonitrile] | – | 2160 nM | 1.6 nM |
| CN1C[C@H](F)C[C@H]1COc1nc(N2C[C@H]3CC[C@@H](C2)N3)c2ccc(-c3cc(O)cc4ccccc34)c(F)c2n1 [Example 29, 4-(4-((1R,5S)-3,8-diazabicyclo[3.2.1]octan-3-yl)-8-fluoro-2-(((2S,4R)-4-fluoro-1-methylpyrrolidin-2-yl)methoxy)quinazolin-7-yl)naphthalen-2-ol] | 5 nM | 779 nM | 1.8 nM |
| Oc1cc(-c2ccc3c(N4CC5CCC(C4)N5)nc(OCC45CCCN4C[C@H](F)C5)nc3c2F)c2c(Cl)cccc2c1 (mixture of isomers) [Example 5, 4-(4-((1R,5S)-3,8-diazabicyclo[3.2.1]octan-3-yl)-8-fluoro-2-(((2R,7aS)-2-fluorotetrahydro-1H-pyrrolizin-7a(5H)-yl)methoxy)quinazolin-7-yl)-5-chloronaphthalen-2-ol] | – | 42 nM | 1.4 nM |
| COc1ccc(Oc2cc3c(N4C[C@H]5CC[C@@H](C4)N5)nc(OC[C@@H]4CCCN4C)nc3cc2-c2cc(O)cc3ccccc23)c(Cl)c1 [Example 18, 4-(4-((1R,5S)-3,8-diazabicyclo[3.2.1]octan-3-yl)-6-(2-chloro-4-methoxyphenoxy)-2-(((S)-1-methylpyrrolidin-2-yl)methoxy)quinazolin-7-yl)naphthalen-2-ol] | – | 1370 nM | 11.5 nM |
| CN1CCC[C@H]1COc1nc(N2C[C@H]3CC[C@@H](C2)N3)c2cc(Oc3ccccc3Cl)c(-c3cc(O)cc4ccccc34)cc2n1 [Example 19, 4-(4-((1R,5S)-3,8-diazabicyclo[3.2.1]octan-3-yl)-6-(2-chlorophenoxy)-2-(((S)-1-methylpyrrolidin-2-yl)methoxy)quinazolin-7-yl)naphthalen-2-ol] | – | 1700 nM | 1.3 nM |
| CN1CCC[C@H]1COc1nc(N2C[C@H]3CC[C@@H](C2)N3)c2cc(Oc3ccccc3C#N)c(-c3cc(O)cc4ccccc34)c(F)c2n1 [Example 24, 2-((4-((1R,5S)-3,8-diazabicyclo[3.2.1]octan-3-yl)-8-fluoro-7-(3-hydroxynaphthalen-1-yl)-2-(((S)-1-methylpyrrolidin-2-yl)methoxy)quinazolin-6-yl)oxy)benzonitrile] | – | 377 nM | 1.4 nM |
| Oc1cc(-c2ccc3c(N4CC5CCC(C4)N5)nc(OCC45CCCN4C[C@H](F)C5)nc3c2F)c2ccccc2c1 (mixture of isomers) [Example 28, 4-(4-((1R,5S)-3,8-diazabicyclo[3.2.1]octan-3-yl)-8-fluoro-2-(((2R,7aS)-2-fluorotetrahydro-1H-pyrrolizin-7a(5H)-yl)methoxy)quinazolin-7-yl)naphthalen-2-ol] | – | 171 nM | 0.6 nM |
| CN1CCC[C@H]1COc1nc(N2CCN(CCCl)CC2)c2ccc(-c3cc(O)cc4ccccc34)c(F)c2n1 [Example 9, (S)-4-(4-(4-(2-chloroethyl)piperazin-1-yl)-8-fluoro-2-((1-methylpyrrolidin-2-yl)methoxy)quinazolin-7-yl)naphthalen-2-ol] | – | 6790 nM | 187 nM |
